Results as given in US9662371B2, “Treatment of autism and similar disorders” (Neuropharmacology Services, LLC, priority 2002, dated 2017).

What was measured:
[1] = system: adult patients diagnosed with autism or Asperger's disorder; experiment: Oxytocin vs placebo 4-hour intravenous infusion challenge, rating of six repetitive behaviors; format: in vivo, human
Text: To evaluate the role of oxytocin in treating autism spectrum disorders, fifteen adult patients (mean age=32.9 years, range=19.4-55.6) (14 male, 1 female) diagnosed with autism (N=6) or Asperger's disorder (N=9) received oxytocin and placebo challenges during visits separated by 2-3 weeks to the General Clinical Research Center of the Department of Psychiatry, Seaver Autism Research Center at the Mount Sinai School of Medicine (New York, N.Y.).
Patients and their guardians signed written informed consent agreements, and the study was carried out in accordance with the Declaration of Helsinki as adopted and promulgated by the National Institutes of Health. All patents were medically healthy, without a current or past history of schizophrenia, psychotic disorders, substance abuse, other Axis I mental disorders, or seizure disorders. Patients were of average intelligence, with a mean IQ (±SD) of 90.33 (±9.90) (range=74-110). Nine patients were medication free for greater than one year prior to the study; three patents were medication free for greater than six weeks prior to the study (one was previously on fluoxetine, one on sertraline and one on bupropion); and the remaining three patents were medication free for a minimum of two weeks prior to and throughout the study (one was previously on fluvoxamine and risperidone, one on sertraline and one on clonazepam).
Each individual subject underwent two identical challenge days in which they received a continuous infusion over 4 hours of synthetic oxytocin (Pitocin®) or placebo.
(§1) All subjects were admitted into the General Clinical Research Center on the evening prior to each challenge. Following an overnight fast, the subject was awakened at 8:00 AM and an indwelling intravenous catheter inserted. At 8:30 AM vital signs were taken, and these continued to be monitored every half-hour. At 9:00 AM, 6 cc of blood were drawn and the oxytocin/placebo infusion was administered in a randomized double-blind fashion. The initial vial of Pitocin® (10 u/mL) combined aseptically with a 1.0 L bag of normal saline was first given at a rate of 10 mL/hr which is equivalent to a dose rate of 0.1 units/hour. The infusion was initiated at a low rate to minimize potential side effects, and the rate gradually titrated up. Specifically, the dose rate was titrated every 15 minutes by 25 mL/hour in the first hour, 50 mL/hour in the second hour, 100 mL/hour in the third hour, and held constant at the maximum rate of 700 mL/hr during the fourth hour. This created a range of dosing from 0.1 U/hour to 7 U/hour. See below:
The combined solution, rotated in an infusion bottle to insure thorough mixing, was added to the system by a constant infusion pump to accurately control the rate of infusion.
(§2) Staff members were given specific instructions to discontinue increasing the rate of infusion if the patient experienced significant side effects. In order to assess possible cardiovascular effects, blood pressure and pulse were recorded every half hour. Oral temperature was recorded every hour. All fifteen subjects returned in 2-3 weeks for an identical challenge administered with the other infusion substance.
Severity of repetitive autistic behaviors was evaluated using a method developed during past research with the autistic population. Six behaviors were assessed: need to know, repeating, ordering, need to tell/ask, self-injury, and touching. The ratings were completed at baseline (O), 60, 120, 180, and 240 minutes and reported. The frequency of each of the six repetitive behaviors was recorded using a four point ordinal scale with the following values: 0=never, 1=rarely, 2=sometimes, 3=constantly. These ratings were done following a 15 to 20 minute interview during which several other measures were administered and the rater had the opportunity to observe the patient's behavior in this domain. […]

[2] = system: adult patients diagnosed with autism or Asperger's disorder; experiment: Side effects and vital signs (blood pressure, pulse, oral temperature) during the oxytocin infusion challenge; format: in vivo, human
Description: as §1, §2
A repeated measure analysis of variance (ANOVA) was conducted looking at the two infusions (oxytocin vs. placebo) over time (0, 60, 120, 180 and 240 minutes). A logarithmic transformation was done for the repetitive behavior ratings because the data were not normally distributed. Baseline differences on the oxytocin vs. placebo days were examined using paired sample t-tests. Differences in response between patients with autism and patients with Asperger's disorder were examined using independent sample t-tests. […]

[3] = baseline (0) to endpoint (240 minutes), 15 patients, FIG. 2

## CC[C@H](C)[C@@H]1NC(=O)[C@H](Cc2ccc(O)cc2)NC(=O)[C@@H](N)CSSC[C@@H](C(=O)N2CCC[C@H]2C(=O)N[C@@H](CC(C)C)C(=O)NCC(N)=O)NC(=O)[C@H](CC(N)=O)NC(=O)[C@H](CCC(N)=O)NC1=O [oxytocin]
[1]; ANOVA of individual items, at p<0.05
  individual dimensions of repetitive behavior, oxytocin versus placebo infusions over time: no significant differences
[1]; ANOVA, F=1.835, df=1, 13, p=0.199
  main effect for drug on repetitive behaviors: no significant main effect
[1]; autistic study group, FIG. 1 (dashed line)
  total number of repetitive behaviors observed following administration: appears to decrease
[1]; [3]
  patients with an increase in repetitive behaviors: 1 patient
  patients with no change in repetitive behaviors: 1 patient
[1]; independent sample t-test, t=0.687, df=13, p=0.504
  response of patients with autism versus patients with Asperger's disorder following oxytocin infusion: did not differ
[1]; individuals who responded to oxytocin, endpoint (240 minutes)
  number of different types of repetitive behavior at endpoint: none or one
[1]; repeated measures ANOVA, 0-240 min, drug×time interaction F=3.487, df=4, 52, p=0.027, FIG. 1
  reduction in repetitive behaviors over time following oxytocin compared to placebo: significantly greater reduction
[1]; time×drug interaction F=2.444, df=4, 52, p=0.093 (p<0.10)
  touching behavior, oxytocin versus placebo over time: directional difference
[1]; time×drug interaction F=2.70, df=4, 52, p=0.086 (p<0.10)
  repeating behavior, oxytocin versus placebo over time: directional difference
[2]; 4-hour infusion, 0.1 U/hour to 7 U/hour
  effects of infusion on blood pressure, pulse, or temperature: no significant effects
[2]; 4-hour infusion, drowsiness, anxiety, depression, headache, tingling, backache, trembling, restlessness, stomach cramps, enuresis
  side effects: mild
[2]; chi square analysis
  relationship between presence or number of side effects and behavioral response: no relationship
